This is an account of results in patent US9242966B2, “Phthalazines as potassium ion channel inhibitors” (BRISTOL-MYERS SQUIBB COMPANY, priority 2013, dated 2016).

SMILES strings stand for the structures.

In this test the target is T1, human KV 1.5 (Homo sapiens, UniProt P22460).
T1 construct: expressed in transfected cells; host or cells: mammalian L-929 cells (mouse fibroblast line)
T1 sequence (P22460 whole entry): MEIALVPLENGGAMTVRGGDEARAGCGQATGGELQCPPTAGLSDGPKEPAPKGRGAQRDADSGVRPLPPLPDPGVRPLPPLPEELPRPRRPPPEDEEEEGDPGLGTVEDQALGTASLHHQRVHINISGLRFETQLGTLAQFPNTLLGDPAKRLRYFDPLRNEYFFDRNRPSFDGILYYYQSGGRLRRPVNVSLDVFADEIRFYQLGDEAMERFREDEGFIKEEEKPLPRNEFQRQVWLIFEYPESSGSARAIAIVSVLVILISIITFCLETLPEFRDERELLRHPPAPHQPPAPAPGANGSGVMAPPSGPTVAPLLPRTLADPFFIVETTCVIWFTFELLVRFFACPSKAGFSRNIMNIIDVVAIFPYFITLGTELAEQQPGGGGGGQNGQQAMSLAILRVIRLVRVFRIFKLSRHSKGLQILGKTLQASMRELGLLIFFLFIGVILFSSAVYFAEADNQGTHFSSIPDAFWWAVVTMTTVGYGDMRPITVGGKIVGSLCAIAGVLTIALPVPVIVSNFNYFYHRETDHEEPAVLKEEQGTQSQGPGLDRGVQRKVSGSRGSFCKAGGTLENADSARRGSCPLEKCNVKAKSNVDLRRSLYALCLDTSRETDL
In words: Block of IKur current in patch clamped L-929 cells expressing human Kv1.5. It is filed as cell-based. Particulars: L929, 0.3 μM; patch clamped mammalian L-929 cells stably expressing human Kv1.5 (IKur); read-out: KV1_5% Inh L929 @0.3 μM. The source says:
1. Synders, D. J.; et al., “A rapidly activating and slowly inactivating potassium channel cloned from human heart: functional analysis after stable mammalian cell culture expression”, J. Gen. Physiol., 101:513-543 (1993). […]
A general note: Patch clamp records ionic current or voltage across a cell membrane.
Consider `O=C(N[C@H]1CCC[C@@H]1OCc1ccccc1)c1cncc(-c2nnc(NCc3ccccn3)c3c(-c4ccccc4)cccc23)c1` [Example 49], for which the inhibition at 0.3 µM was 93.9%.

Take `CS(=O)(=O)Nc1cncc(-c2nnc(NCc3ccccc3)c3c(-c4ccccc4)cccc23)c1` [Example 3, N-(5-(4-(Benzylamino)-5-phenylphthalazin-1-yl)pyridin-3-yl)methanesulfonamide]: the inhibition at 0.3 µM was determined as 77.3%.

On to `C[C@@H](Nc1nnc(-c2cncc(S(N)(=O)=O)c2)c2cccc(-c3ccccc3)c12)c1ccccc1` [Example 42, (R)-5-(5-Phenyl-4-((1-phenylethyl)amino)phthalazin-1-yl)pyridine-3-sulfonamide], for which the inhibition at 0.3 µM is 91.2%.

Consider `NS(=O)(=O)c1cncc(-c2nnc(NCc3ccccn3)c3c(-c4ccccc4)cccc23)c1` [Example 1, 5-(5-Phenyl-4-(pyridin-2-ylmethylamino)phthalazin-1-yl)pyridine-3-sulfonamide], for which the inhibition at 0.3 µM amounted to 79.5%.

As to `O=C(NCc1ccc(OC(F)(F)F)cc1)c1cncc(-c2nnc(NCc3ccccn3)c3c(-c4ccccc4)cccc23)c1` [Example 44, 5-(5-Phenyl-4-((pyridin-2-ylmethyl)amino)phthalazin-1 yl)-N-(4-(trifluoromethoxy)benzyl)nicotinamide], the inhibition at 0.3 µM came to 96.5%.

For the molecule `NC(=O)c1cncc(-c2nnc(NCc3ccccc3)c3c(-c4ccccc4)cccc23)c1` [Example 23, 5-(4-(Benzyl-amino)-5-phenylphthalazin-1-yl)nicotinamide], the inhibition at 0.3 µM was 83.5%.

For the molecule `CCOC(=O)c1cncc(-c2nnc(NCc3ccccc3)c3c(-c4ccccc4)cccc23)c1` [Example 24, Ethyl 5-(4-(benzyl-amino)-5-phenylphthalazin-1-yl) nicotinate], the inhibition at 0.3 µM was determined as 96.5%.

Regarding `NS(=O)(=O)c1cncc(-c2nnc(NCc3ncccc3F)c3c(-c4ccccc4)cccc23)c1` [Example 37, 5-(4-((3-Fluoropyridin-2-yl)methylamino)-5-phenylphthalazin-1-yl)pyridine-3-sulfonamide], the inhibition at 0.3 µM was 78.6%.

Consider `CC(=O)Nc1cncc(-c2nnc(NCc3ccccc3)c3c(-c4ccccc4)cccc23)c1` [Example 2, N-(5-(4-(Benzylamino)-5-phenylphthalazin-1-yl)pyridin-3-yl)acetamide], for which the inhibition at 0.3 µM is 83.9%.

On to `CC(C)(Nc1nnc(-c2cncc(S(N)(=O)=O)c2)c2cccc(-c3ccccc3)c12)c1ccccn1` [Example 35, 5-(5-Phenyl-4-((2-(pyridin-2-yl)propan-2-yl)amino)phthalazin-1-yl)pyridine-3-sulfonamide], for which the inhibition at 0.3 µM was 86.3%.

As for `CC(C)OCCNC(=O)c1cncc(-c2nnc(NCc3ccccn3)c3c(-c4ccccc4)cccc23)c1` [Example 48, N-(2-Isopropoxyethyl)-5-(5-phenyl-4-((pyridin-2-ylmethyl)amino)phthalazin-1-yl)nicotinamide], the inhibition at 0.3 µM worked out at 71.1%.

As to `COc1ccccc1CNc1nnc(-c2cncc(S(N)(=O)=O)c2)c2cccc(-c3ccccc3)c12` [Example 19, 5-(4-((2-Methoxy-benzyl)amino)-5-phenylphthalazin-1-yl)pyridine-3-sulfonamide], the inhibition at 0.3 µM was 72.5%.

In the case of `Nc1ccc(-c2nnc(NCc3ccccc3)c3c(-c4ccccc4)cccc23)cn1` [Example 20, 4-(6-Aminopyridin-3-yl)-N-benzyl-8-phenylphthalazin-1-amine], the inhibition at 0.3 µM turned out to be 92.8%.

Consider `NS(=O)(=O)c1cncc(-c2nnc(NCc3ccccc3F)c3c(-c4ccccc4)cccc23)c1` [Example 31, 5-(4-((2-Fluorobenzyl)amino)-5-phenylphthalazin-1-yl)pyridine-3-sulfonamide], for which the inhibition at 0.3 µM came to 87.4%.

Consider `NS(=O)(=O)c1cncc(-c2nnc(NCc3cccc(OC(F)(F)F)c3)c3c(-c4ccccc4)cccc23)c1` [Example 40, 5-(5-Phenyl-4-((3-(trifluoromethoxy)benzyl)amino)phthalazin-1-yl)pyridine-3-sulfonamide], for which the inhibition at 0.3 µM was determined as 90.2%.

Regarding `O=C(Nc1cncc(-c2nnc(NCc3ccccc3)c3c(-c4ccccc4)cccc23)c1)OCC(F)(F)F` [Example 27, 2,2,2-Trifluoroethyl (5-(4-(benzylamino)-5-phenylphthalazin-1-yl)pyridin-3-yl)carbamate], the inhibition at 0.3 µM stood at 78%.

Consider `CC(C)(C)CCNC(=O)c1cncc(-c2nnc(NCc3ccccn3)c3c(-c4ccccc4)cccc23)c1` [Example 47, N-(3,3-Dimcthylbutyl)-5-(5-phenyl-4-((pyridin-2-ylmethyl)amino)phthalazin-1-yl)nicotinamide], for which the inhibition at 0.3 µM was determined as 96.4%.

For `CC(=O)Nc1ccc(-c2nnc(NCc3ccccc3)c3c(-c4ccccc4)cccc23)cn1` [Example 21, N-(5-(4-(Benzyl-amino)-5-phenylphthalazin-1-yl)pyridin-2-yl)acetamide], the inhibition at 0.3 µM is 97.9%.

For `CC(C)(C)Oc1cc(-c2nnc(NCc3ccccc3)c3c(-c4ccccc4)cccc23)ccn1` [Example 13, N-Benzyl-4-(2-tert-butoxypyridin-4-yl)-8-phenylphthalazin-1-amine], the inhibition at 0.3 µM turned out to be 43%.

As for `Nc1cncc(-c2nnc(NCc3ccccn3)c3c(-c4ccccc4)cccc23)c1` [Example 9, 4-(5-Aminopyridin-3-yl)-8-phenyl-N-(pyridin-2-ylmethyl) phthalazin-1-amine], the inhibition at 0.3 µM amounted to 87.1%.

As to `CC(C)CC(=O)Nc1cncc(-c2nnc(NCc3ccccc3)c3c(-c4ccccc4)cccc23)c1` [Example 22, N-(5-(4-(Benzyl-amino)-5-phenylphthalazin-1-yl)pyridin-3-yl)-3-methylbutanamide], the inhibition at 0.3 µM amounted to 91.5%.

On to `C[C@H](Nc1nnc(-c2cncc(S(N)(=O)=O)c2)c2cccc(-c3ccccc3)c12)c1ccccc1` [Example 43, (S)-5-(5-Phenyl-4-((1-phenylethyl)amino)phthalazin-1-yl)pyridine-3-sulfonamide], for which the inhibition at 0.3 µM stood at 86.8%.

For `NS(=O)(=O)c1cncc(-c2nnc(NC[C@H](O)c3ccccc3)c3c(-c4ccccc4)cccc23)c1` [Example 41, (R)-5-(4-((2-Hydroxy-2-phenylethyl)amino)-5-phenylphthalazin-1-yl)pyridine-3-sulfonamide], the inhibition at 0.3 µM turned out to be 93.5%.

Regarding `COCCNC(=O)c1cncc(-c2nnc(NCc3ccccn3)c3c(-c4ccccc4)cccc23)c1` [Example 46, N-(2-Methoxyethyl)-5-(5-phenyl-4-((pyridin-2-ylmethyl)amino)phthalazin-1-yl)nicotinamide], the inhibition at 0.3 µM was 51.1%.

On to `NS(=O)(=O)c1cncc(-c2nnc(NCc3cc(Cl)cc(Cl)c3)c3c(-c4ccccc4)cccc23)c1` [Example 39, 5-(4-((3,5-Dichlorobenzyl)amino)-5-phenylphthalazin-1-yl)pyridine-3-sulfonamide], for which the inhibition at 0.3 µM is 78.4%.

As for `NC(=O)c1cncc(-c2nnc(NCc3ccccn3)c3c(-c4ccccc4)cccc23)c1` [Example 5, 5-(5-Phenyl-4-(pyridin-2-ylmethylamino)phthalazin-1-yl)nicotinamide], the inhibition at 0.3 µM worked out at 76%.

`NS(=O)(=O)c1cncc(-c2nnc(NCc3ccccc3)c3c(-c4ccc(F)cc4)cccc23)c1` [Example 28, 5-(4-(Benzylamino)-5-(4-fluorophenyl)phthalazin-1-yl)pyridine-3-sulfonamide]: the inhibition at 0.3 µM is 41.5%.

With `NS(=O)(=O)c1cncc(-c2nnc(NCc3ncccn3)c3c(-c4ccccc4)cccc23)c1` [Example 29, 5-(5-Phenyl-4-((pyrimidin-2-ylmethyl)amino)phthalazin-1-yl)pyridine-3-sulfonamide], the inhibition at 0.3 µM turned out to be 68.1%.

Turning to `O=C(NCC(O)CO)c1cncc(-c2nnc(NCc3ccccn3)c3c(-c4ccccc4)cccc23)c1` (stereo not shown) [Example 6, N-(2,3-Dihydroxypropyl)-5-(5-phenyl-4-(pyridin-2-ylmethylamino)phthalazin-1-yl)nicotinamide], the inhibition at 0.3 µM amounted to 38.3%.

For `NS(=O)(=O)c1cncc(-c2nnc(NCc3c(F)cccc3F)c3c(-c4ccccc4)cccc23)c1` [Example 36, 5-(4-((2,6-Difluorobenzyl)amino)-5-phenylphthalazin-1-yl)pyridine-3-sulfonamide], the inhibition at 0.3 µM was found to be 91.1%.

In the case of `NS(=O)(=O)c1cncc(-c2nnc(NCc3ccccc3)c3c(-c4ccccc4)cccc23)c1` [Example 8, 5-(4-(Benzylamino)-5-phenylphthalazin-1-yl)pyridine-3-sulfonamide], the inhibition at 0.3 µM turned out to be 90.5%.

With `CC(C)CC(=O)Nc1cncc(-c2nnc(NCc3ccccn3)c3c(-c4ccccc4)cccc23)c1` [Example 30, 3-Methyl-N-(5-(5-phenyl-4-((pyridin-2-ylmethyl)amino)phthalazin-1-yl)pyridin-3-yl)butanamide], the inhibition at 0.3 µM was 92.5%.

For the molecule `CC(Nc1nnc(-c2cncc(S(N)(=O)=O)c2)c2cccc(-c3ccccc3)c12)c1ccccn1` (stereo not shown) [Example 33, 5-(5-Phenyl-4-((1-(pyridin-2-yl)ethyl)amino)phthalazin-1-yl)pyridine-3-sulfonamide], the inhibition at 0.3 µM was determined as 71.1%.

As for `O=C(NCCc1ccccc1F)c1cncc(-c2nnc(NCc3ccccn3)c3c(-c4ccccc4)cccc23)c1` [Example 50, N-(2-Fluorophenethyl)-5-(5-phenyl-4-((pyridin-2-ylmethyl)amino)phthalazin-1-yl)nicotinamide], the inhibition at 0.3 µM is 98.6%.

As to `NC(=O)Nc1cncc(-c2nnc(NCc3ccccc3)c3c(-c4ccccc4)cccc23)c1` [Example 10, 1-(5-(4-(Benzylamino)-5-phenylphthalazin-1-yl)pyridin-3-yl)urea], the inhibition at 0.3 µM amounted to 51.1%.

`COc1ncc(-c2nnc(NCc3ccccc3)c3c(-c4ccccc4)cccc23)cn1` [Example 26, N-Benzyl-4-(2-methoxy-pyrimidin-5-yl)-8-phenylphthalazin-1-amine]: the inhibition at 0.3 µM was 93.1%.

For `Oc1cc(-c2nnc(NCc3ccccc3)c3c(-c4ccccc4)cccc23)ccn1` [Example 25, 4-(4-(Benzyl-amino)-5-phenylphthalazin-1-yl)pyridin-2-ol], the inhibition at 0.3 µM turned out to be 80.2%.
